The text below walks through data of publication PMC7012919, “TRPM7 contributes to progressive nephropathy” (Scientific Reports, 2020).

The experiment deals with TRPM7 (Rattus norvegicus, UniProt Q925B3). Nature of the experiment: whole-cell patch clamp of endogenous TRPM7 currents in NRK-52E and NRK-49F cells ([…] complete block); IC50 from Fura-2 Mn2+ quench in NRK-52E cells. It counts as cell-based. Background: The patch-clamp technique gives a direct electrical read-out from membranes.
Sequence of TRPM7 (Q925B3 whole entry): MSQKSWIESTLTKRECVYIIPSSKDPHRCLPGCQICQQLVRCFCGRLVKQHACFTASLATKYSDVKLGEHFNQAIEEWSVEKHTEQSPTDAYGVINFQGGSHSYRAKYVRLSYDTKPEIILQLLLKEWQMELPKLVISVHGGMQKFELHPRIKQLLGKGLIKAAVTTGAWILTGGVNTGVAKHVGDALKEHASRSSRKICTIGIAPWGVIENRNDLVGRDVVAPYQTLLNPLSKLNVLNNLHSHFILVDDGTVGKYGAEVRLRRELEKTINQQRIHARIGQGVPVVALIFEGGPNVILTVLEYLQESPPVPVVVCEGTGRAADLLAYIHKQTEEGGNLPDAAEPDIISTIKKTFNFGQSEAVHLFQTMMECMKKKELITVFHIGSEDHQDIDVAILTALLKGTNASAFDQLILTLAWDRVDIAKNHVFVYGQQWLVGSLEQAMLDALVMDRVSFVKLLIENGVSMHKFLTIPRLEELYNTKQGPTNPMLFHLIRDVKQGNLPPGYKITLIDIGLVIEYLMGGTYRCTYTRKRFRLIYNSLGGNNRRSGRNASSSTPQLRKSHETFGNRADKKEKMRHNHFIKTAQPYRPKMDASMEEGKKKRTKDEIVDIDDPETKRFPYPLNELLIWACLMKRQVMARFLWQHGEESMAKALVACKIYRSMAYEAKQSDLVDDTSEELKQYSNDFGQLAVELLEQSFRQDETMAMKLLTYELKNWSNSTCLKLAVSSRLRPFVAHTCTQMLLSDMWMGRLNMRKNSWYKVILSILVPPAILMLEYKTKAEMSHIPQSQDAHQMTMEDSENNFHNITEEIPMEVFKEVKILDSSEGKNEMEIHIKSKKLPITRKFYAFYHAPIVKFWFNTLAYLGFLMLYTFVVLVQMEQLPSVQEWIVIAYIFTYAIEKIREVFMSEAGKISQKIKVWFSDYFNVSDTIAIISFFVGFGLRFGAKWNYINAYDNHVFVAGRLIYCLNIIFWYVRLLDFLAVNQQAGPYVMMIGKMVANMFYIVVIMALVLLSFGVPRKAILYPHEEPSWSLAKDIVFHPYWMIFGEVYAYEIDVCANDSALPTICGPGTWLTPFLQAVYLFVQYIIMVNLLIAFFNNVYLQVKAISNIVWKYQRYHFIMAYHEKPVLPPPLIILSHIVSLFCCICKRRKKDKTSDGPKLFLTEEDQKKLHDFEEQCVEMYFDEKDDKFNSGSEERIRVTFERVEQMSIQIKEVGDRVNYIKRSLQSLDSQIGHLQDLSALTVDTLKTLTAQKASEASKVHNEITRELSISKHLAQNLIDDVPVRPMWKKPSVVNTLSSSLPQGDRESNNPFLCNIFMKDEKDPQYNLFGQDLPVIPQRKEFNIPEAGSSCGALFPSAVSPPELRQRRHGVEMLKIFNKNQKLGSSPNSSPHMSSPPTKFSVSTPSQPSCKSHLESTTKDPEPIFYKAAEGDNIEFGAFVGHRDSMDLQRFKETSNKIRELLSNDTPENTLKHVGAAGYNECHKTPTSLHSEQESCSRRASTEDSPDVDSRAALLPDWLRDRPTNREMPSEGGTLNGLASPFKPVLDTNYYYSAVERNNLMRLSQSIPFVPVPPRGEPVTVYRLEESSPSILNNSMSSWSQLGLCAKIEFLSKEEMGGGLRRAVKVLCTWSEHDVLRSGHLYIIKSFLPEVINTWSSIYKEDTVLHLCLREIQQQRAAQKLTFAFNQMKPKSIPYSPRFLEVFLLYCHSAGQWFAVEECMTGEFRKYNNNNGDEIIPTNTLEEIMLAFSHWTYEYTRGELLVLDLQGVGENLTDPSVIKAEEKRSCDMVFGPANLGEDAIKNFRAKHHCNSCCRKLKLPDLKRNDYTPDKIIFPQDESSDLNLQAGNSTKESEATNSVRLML

A word on the IC50: it is the concentration that inhibits the measured activity by half. Low readings indicate greater potency in that assay, high ones weaker potency in that assay. `c1ccc2c(c1)CCC[C@H]2Nc1nc2ccccc2[nH]1` [NS8593] yielded an IC50 of 16 ± 3 µM.
